Assay results published in BindingDB's records for PubMed 39326269 (Second Military Medical University).
Where a SMILES comes first, the peptide text is derived from it. Bridges are numbered along the chain shown (N, C = ends). [ ]: non-standard residue; d: D form. S5 = C=CCCC[C@](C)(N)C(=O)O

Key:
GTPase KRas = GTPase KRas (Homo sapiens, UniProt P01116); test: Binding affinity to KRas G12C mutant (unknown origin) assessed as dissociation constant by biolayer interferometry assay
[1] = Inhibition of pERK in human ASPC1 cells measured after 1 hr
[2] = Inhibition of pERK in human ASPC1 cells measured after 18 hr

GTPase KRas, sequence (P01116 whole entry G12C): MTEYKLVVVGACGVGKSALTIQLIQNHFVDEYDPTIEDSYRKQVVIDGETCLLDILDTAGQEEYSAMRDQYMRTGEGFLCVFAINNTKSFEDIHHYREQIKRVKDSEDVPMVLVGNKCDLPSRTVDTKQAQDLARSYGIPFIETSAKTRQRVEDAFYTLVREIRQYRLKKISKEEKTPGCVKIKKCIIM

Compound	Kd (GTPase KRas) [nM]	EC50 [1] [nM]	EC50 [2] [nM]
CC[C@H](C)[C@H](NC(=O)CNC(=O)[C@H](Cc1ccccc1)NC(C)=O)C(=O)N[C@@]1(C)CCCC=CCCC[C@@](C)(C(=O)N[C@@H](CC(C)C)C(=O)N[C@@H](CCCCN)C(=O)N[C@H](C(N)=O)[C@@H](C)O)NC(=O)[C@H](CC(N)=O)NC(=O)[C@H]([C@@H](C)O)NC(=O)[C@H](CC(C)C)NC1=O (Ac-FGI[S5]LTN[S5]LKT-NH2; staple 4-8)	7670		
CC[C@H](C)[C@@H]1NC(=O)[C@H](Cc2ccc(O)cc2)NC(=O)[C@H](CC(C)C)NC(=O)[C@@H]2CCCN2C(=O)[C@H](NC(=O)[C@@H](CCCNC(=N)N)NC(=O)[C@@H](CCCNC(=N)N)NC(=O)[C@@H](CCCNC(=N)N)NC(=O)[C@@H](CCCNC(=N)N)NC(=O)[C@H](CCCCN=[N+]=[N-])NC(C)=O)CSSC[C@@H](C(=O)N[C@H](CCCNC(=N)N)C(=O)N[C@H](CCCNC(=N)N)C(=O)N[C@H](CCCNC(=N)N)C(=O)N[C@H](CCCNC(=N)N)C(N)=O)NC(=O)[C@H](C(C)C)NC(=O)[C@@H]2CCCN2C(=O)[C@H](CC(=O)O)NC(=O)[C@H](Cc2ccc(O)cc2)NC(=O)[C@](C)(CO)NC1=O		1200	1500
